# Measured values: patent US9856228B2, “Peptidyl nitril compounds as dipeptidyl peptidase I inhibitors” (Prozymex A/S, priority 2013, dated 2018)
# Values joined by “and” are separate entries in the source; they are usually repeats but may differ in a detail not shown here. Equal entries are not always repeated.
# Assays:
# DPPI [1] = target: T1, DPPI (Homo sapiens, UniProt P53634); assay: Cell based DPPI inhibition assay (neutrophil elastase activity in U937 cells); parameters: endogenous in cells; host or cells: U937 cells; settings: 24 hours, elastase activity readout
# T1 sequence (P53634 231-394 limits assumed): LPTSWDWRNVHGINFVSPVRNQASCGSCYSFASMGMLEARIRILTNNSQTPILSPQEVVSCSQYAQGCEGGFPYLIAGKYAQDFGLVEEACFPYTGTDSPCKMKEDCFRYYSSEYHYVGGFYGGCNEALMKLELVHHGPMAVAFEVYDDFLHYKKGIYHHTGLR
# T1 sequence (P53634 25-134 limits assumed): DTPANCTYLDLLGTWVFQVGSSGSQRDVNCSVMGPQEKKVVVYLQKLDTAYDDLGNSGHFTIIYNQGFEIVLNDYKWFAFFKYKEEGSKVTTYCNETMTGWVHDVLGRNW
# T1 sequence (P53634 395-463 limits assumed): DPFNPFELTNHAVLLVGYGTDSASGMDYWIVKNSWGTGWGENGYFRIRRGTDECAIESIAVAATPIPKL
# Method: Using the cell based assay described below, the biological activity of the compounds of the invention or other DPPI inhibitors may be determined.
# Neutrophil elastase enzymatic activities in U937 cells grown in the presence of DPPI inhibitors were measured by methods modified from Méthot N; Rubin J; Guay D; Beaulieu C; Ethier D; Reddy T J; Riendeau D and Percival M D (2007) 3 Biol Chem, 282, 20836-20846. U937 cells were propagated in culture media (RPMI 1640, supplemented with 10% FBS, 10 mM Hepes, 1 mM sodium pyrovate, 100 units/ml of each of penicillin and streptomycin). Cells were seeded in 12-well plates at 0.4×10^6 cells/ml in volumes of 1.5 ml per well in the presence of no or increasing concentrations of DPPI inhibitor. 12 points in duplicate in the range of 0.1 nM to 50 μM inhibitor were tested. After 24 hours cells were harvested, washed with PBS and lysed in 20 mM Tris-HCl, pH 7.5, 100 mM NaCl, 0.2% Triton X-100. […]
# The activity of neutrophil elastase was determined by measuring the enzymatic release of chromogenic p-nitroaniline from the substrate MetOSuc-Ala-Ala-Pro-Val-pNA, which leads to an increase in absorbance at 405 nm. Assays were carried out in 96-well plates in a final volume of 200 μL at 37° C., and absorbance was measured 8 times during 21-35 minutes using a plate reader. IC50 was determined using a 4-parameter logistic equation in a non-linear curve fitting routine.
# [2] = Test for metabolic stability, Human Liver Microsomes; type: in vitro ADME; settings: for Metabolic stability human microsomes t½: human liver microsomes 1.0 mg/mL; for Metabolic stability human microsomes t½ / half-life at 5 μM: 5 μM test compound, NADPH; for half-life at 5 μM: human, liver microsomes, pH 7.4, human liver microsomes 1.0 mg/mL, read-out: Metabolic stability human microsomes t½
# Method: (§1) The test for metabolic stability was performed by Absorption System, Exton, Pa. 19341, USA.
# (§2) The test compound (DPPI inhibitor) was dissolved in 100% DMSO at a concentration of 10 mM. The reaction mixture, consisted of Mouse or Human Liver Microsomes (1.0 mg/mL), 1 mM NADPH, 100 nnM Potassium Phosphate, pH 7.4, 10 mM Magnesium Chloride and test compound at a concentration of 5 μM.
# (§3) An aliquot of the reaction mixture (without cofactors) was incubated in a shaking water bath at 37° C. for 3 minutes. Another aliquot of the reaction mixture was prepared as the negative control. The test compound was added into both the reaction mixture and the negative control at a final concentration of 5 μM.
# (§4) The reaction was initiated by the addition of NADPH to 1 mM (not into the negative controls) and then incubated in a shaking water bath at 37° C. Aliquots (100 μL) were withdrawn at 0, 10, 20, 30, and 60 minutes or at 0, 15, 30 and 60 minutes and combined with 900 μL of ice-cold 50/50 acetonitrile/dH2O to terminate the reaction. A control (testosterone) was run simultaneously with the test compound in a separate reaction. LC/MS/MS is used to determine the peak area response ratio (peak area corresponding to test compound or control divided by that of an analytical internal standard). The natural log of the percent remaining was plotted versus time. A linear fit was used to determine the rate constant. The fit was truncated if the percent remaining of test compound was less than 10%. The elimination half-lives associated with the disappearance of the test and control compounds were determined to compare their relative metabolic stability.
# [3] = Test for metabolic stability, Mouse Liver Microsomes; type: in vitro ADME; settings: for Metabolic stability mouse microsomes t½: mouse liver microsomes 1.0 mg/mL; for Metabolic stability mouse microsomes t½ / half-life at 5 μM: 5 μM test compound, NADPH; for half-life at 5 μM: mouse, liver microsomes, pH 7.4, mouse liver microsomes 1.0 mg/mL, read-out: Metabolic stability mouse microsomes t½
# Method: as §1, §2, §3, §4
# [4] = tested on: human lymphoblastoid TK6 cells; assay: Test for cytotoxicity (relative cell proliferation, optical absorbance); type: cell-based; settings: for highest concentration that does not cross the significance threshold: TK6 strains GenM-T01 and GenM-C01, 24 hour and 48 hour time points, threshold 80% relative cell density
# Method: The test for cytotoxicity was performed by Cyprotex Discovery Ltd. 15 Beech lane, Macclesfield, Cheshire, SK10 2DR, UK.
# Two strains of cultured human lymphoblastoid TK6 cells was used, GenM-T01 and GenM-C01. A dilution series of each test compound was generated in a 96-well, black microplate with an optically clear base. The plates was analysed at 24 hour and 48 hour time points using a microplate reader, that provides measurements of light absorbance for cells and solutions in the microplates wells.
# Cytotoxicity was assessed using relative cell proliferation, quantified using optical absorbance. Cytotoxic compounds are those which reduce relative cell density below a significance threshold set at 80% compared to the vehicle-treated control, at one or more test concentrations.
# DPPI [5] = target: T1, DPPI; assay: Human DPPI inhibition assay (Gly-Phe-paranitroanilide substrate); type: biochemical; parameters: purchased UNIZYME Laboratories A/S; settings: Table 1 potency; assay not given
# Method: Using this assay, the IC50 value of the compound of the invention may be determined using Gly-Phe-paranitroanilide as a DPPI specific substrate.
# Assay buffer: 20 mM citric acid (2.1 g citric acid), 150 mM NaCl (4.4 g NaCl) and 2 mM EDTA (370 mg EDTA) was dissolved in 500 mL H2O, and pH was adjusted to 4.5 with HCl.
# Substrate: Gly-Phe-paranitroanilide (Sigma Aldrich; Cat. No G0142) was used as the substrate for determination of IC50 values. Km was 2.2 mM. The substrate was solubilized in dinnethylformamid to give a 0.2-0.5 M stock solution, which was then further diluted with stirring in assay buffer to a final concentration of 1 mM.
# DPPI: Human DPPI (obtained from UNIZYME Laboratories A/S, DK-2970 Høsholm, Denmark) was stored at −20° C. in a buffer containing 2.5 mM Na-phosphate, 150 mM NaCl, 2 mM cysteamine, 50% glycerol, pH 7.0 at a concentration of 1-2 mg/mL (5-10 μM). This stock solution was diluted 500-1000 times in assay buffer to a concentration of 10-20 nM.
# Assay conditions: The assay was performed in 96-well plates. Diluted enzyme (25 μL) was added to the well, followed by 25 μL of test substance in varying concentrations, and the solution was mixed. […] The absorption was measured at 405 nm at 37° C. for every 90 seconds for 12 minutes or every 20 seconds for 4 minutes. […] IC50 was determined using a 4-parameter logistic equation in a non-linear curve fitting routine.
# CYP2D6 = target: T2, CYP2D6 (Homo sapiens, UniProt P10635); assay: Test for inhibition of CYP2D6 in Human Liver Microsomes; type: in vitro ADME; settings: pooled Human Liver Microsomes, 7 μM bufuralol; read-out: CYP inhibition IC50 CYP2D6
# T2 construct: incubated with pooled Human Liver Microsomes (0.25 mg protein/mL); from tissue; host or cells: pooled human liver microsomes
# T2 sequence (P10635 whole entry): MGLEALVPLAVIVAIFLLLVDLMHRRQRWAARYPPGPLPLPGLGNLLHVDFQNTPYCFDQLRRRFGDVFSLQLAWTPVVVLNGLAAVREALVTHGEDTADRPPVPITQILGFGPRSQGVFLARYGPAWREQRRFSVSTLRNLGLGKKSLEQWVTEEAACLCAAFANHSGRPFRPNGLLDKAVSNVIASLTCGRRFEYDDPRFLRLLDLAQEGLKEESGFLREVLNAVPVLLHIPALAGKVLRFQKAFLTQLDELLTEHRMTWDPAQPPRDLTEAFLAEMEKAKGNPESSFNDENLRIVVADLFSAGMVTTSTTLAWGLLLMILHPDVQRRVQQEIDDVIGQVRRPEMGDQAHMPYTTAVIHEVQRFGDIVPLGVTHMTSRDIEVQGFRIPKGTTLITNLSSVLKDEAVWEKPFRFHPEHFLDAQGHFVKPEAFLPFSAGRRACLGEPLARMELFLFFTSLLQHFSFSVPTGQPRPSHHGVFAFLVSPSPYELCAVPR
# Method: (§5) The test for inhibition of CYP2C9, CYP2D6 and CYP3A4 enzymes was performed by Absorption System, Exton, Pa. 19341, USA according to the procedure described below.
# (§6) The IC50 values of Example 1 of WO2012119941 (PZ1024) and the compound of the present invention (PZ1025) for CYP enzymes (CYP2C9, CYP2D6, and CYP3A4) in Human Liver Microsomes were measured. […] After a period of incubation, the samples were treated by the addition of protein precipitation solvent and centrifuged. CYP enzyme activities were measured by determining the formation of the CYP probe metabolites by LC-MS/MS, and the IC50 (the concentration of an inhibitor causing 50% inhibition) was estimated using GraphPad Prism® software by fitting the experimental data (percent of control activity remaining at each concentration of test compound) to a sigmoidal model and non-linear regression analysis.
# (§7) The CYP enzyme activities in the Human Liver Microsomes were verified in parallel by determining the inhibition of positive inhibitors on the CYP enzyme activities (sulfaphenazole, quinidine and ketoconazole for CYP2C9, CYP2D6, and CYP3A4, respectively).
# CYP2C9 = target: T3, CYP2C9 (Homo sapiens, UniProt P11712); assay: Test for inhibition of CYP2C9 in Human Liver Microsomes; type: in vitro ADME; settings: pooled Human Liver Microsomes, 6 μM diclofenac; read-out: CYP inhibition IC50 CYP2C9
# T3 construct: incubated with pooled Human Liver Microsomes (0.25 mg protein/mL); from tissue; host or cells: pooled human liver microsomes
# T3 sequence (P11712 whole entry): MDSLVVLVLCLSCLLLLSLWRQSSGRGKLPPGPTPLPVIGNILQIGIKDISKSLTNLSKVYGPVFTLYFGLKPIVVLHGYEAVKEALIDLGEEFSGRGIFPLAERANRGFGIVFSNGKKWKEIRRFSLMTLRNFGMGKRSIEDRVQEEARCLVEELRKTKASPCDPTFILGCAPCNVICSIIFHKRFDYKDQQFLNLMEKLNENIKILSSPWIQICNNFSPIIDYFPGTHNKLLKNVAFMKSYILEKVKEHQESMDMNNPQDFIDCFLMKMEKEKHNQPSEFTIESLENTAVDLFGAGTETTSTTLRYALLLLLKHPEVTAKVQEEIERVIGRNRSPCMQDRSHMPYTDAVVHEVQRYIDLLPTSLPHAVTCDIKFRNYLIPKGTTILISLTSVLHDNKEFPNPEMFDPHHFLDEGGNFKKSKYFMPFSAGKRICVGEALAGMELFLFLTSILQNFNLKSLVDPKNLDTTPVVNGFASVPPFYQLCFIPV
# Method: as §5, §6, §7
# CYP3A4 = target: T4, CYP3A4 (Homo sapiens, UniProt P08684); assay: Test for inhibition of CYP3A4 in Human Liver Microsomes; type: in vitro ADME; settings: pooled Human Liver Microsomes, 75 μM testosterone; read-out: CYP inhibition IC50 CYP3A4
# T4 construct: incubated with pooled Human Liver Microsomes (0.25 mg protein/mL); from tissue; host or cells: pooled human liver microsomes
# T4 sequence (P08684 whole entry): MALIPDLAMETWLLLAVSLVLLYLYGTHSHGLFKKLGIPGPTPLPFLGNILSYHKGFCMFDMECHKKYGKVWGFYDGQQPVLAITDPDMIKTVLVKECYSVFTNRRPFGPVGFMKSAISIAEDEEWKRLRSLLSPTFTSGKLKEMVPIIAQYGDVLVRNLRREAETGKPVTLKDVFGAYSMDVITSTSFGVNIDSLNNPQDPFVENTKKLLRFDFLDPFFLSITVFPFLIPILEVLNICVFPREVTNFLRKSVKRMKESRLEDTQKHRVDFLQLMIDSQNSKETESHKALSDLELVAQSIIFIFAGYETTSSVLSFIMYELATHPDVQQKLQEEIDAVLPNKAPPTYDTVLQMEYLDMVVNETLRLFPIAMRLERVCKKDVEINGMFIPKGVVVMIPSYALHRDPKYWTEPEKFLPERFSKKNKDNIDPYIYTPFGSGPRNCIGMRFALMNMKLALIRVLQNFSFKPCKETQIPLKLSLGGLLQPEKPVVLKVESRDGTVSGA
# Method: as §5, §6, §7
IC50 (DPPI [1]),Metabolic stability human microsomes t½ [2],half-life at 5 μM [2] [min],Metabolic stability mouse microsomes t½ [3],half-life at 5 μM [3] [min],IC50 (DPPI [5]) [nM],IC50 (CYP2D6) [nM],"half-life in human liver microsomes, times higher than PZ1024 ([2]; PZ1025 versus PZ1024)","half-life in human liver microsomes, times higher than PZ1032 ([2]; PZ1025 versus PZ1032)","half-life in mouse liver microsomes, times higher than PZ1024 ([3]; PZ1025 versus PZ1024)","half-life in mouse liver microsomes, times higher than PZ1032 ([3]; PZ1025 versus PZ1032)",IC50 (CYP2C9) [nM],IC50 (CYP3A4) [nM],Compound,"times less toxic than PZ1024 ([4]; PZ1025 versus PZ1024, TK6 cytotoxicity)",highest concentration that does not cross the significance threshold [4] [µM]
~11 nM,t½ ≈ 50 min,50,t½ ≈ 35 min,35,–,–,–,–,–,–,–,–,"CN1CCN(S(=O)(=O)c2ccc(-c3ccc(C[C@@H](C#N)NC(=O)C4(N)CCOCC4)cc3)cc2)CC1 [PZ1032, reference compound]",–,–
11 nM and ~11 nM,t½ > 300 min,> 300,t½ ≈ 65 min,~65,34,> 100000,more than 5 times,more than 5 times,more than 6 times,about 2 times,> 100000,> 100000,"CN1CCN(Cc2ccc(-c3ccc(C[C@@H](C#N)NC(=O)C4(N)CCOCC4)cc3)cc2)CC1 [PZ1025, (S)-4-amino-N-(1-cyano-2-(4′-((4-methylpiperazin-1-yl)methyl)biphenyl-4-yl)ethyl)tetrahydro-2H-pyran-4-carboxamide]",at least 5 times,150
–,t½ ≈ 55 min,~55,t½ ≈ 10 min,~10,37,18000,–,–,–,–,> 100000,> 100000,"CN1CCN(Cc2ccc(-c3ccc(C[C@@H](C#N)NC(=O)C4(N)CCCCC4)cc3)cc2)CC1 [PZ1024, reference compound]",–,15
